Source: patent US20230126310A1 (priority 2020, published 2023)

Test system: SARS-CoV-2
Conditions: not given

Structure (SMILES)	IC50 [µM]	pIC50
O=C(/C=C/c1ccc2ccccc2n1)c1ccncc1 [PFK-015]	7.03	5.15
CNS(=O)(=O)Nc1nccc(Cc2c(C)c3ccc(Oc4ncccn4)cc3oc2=O)c1F [RO5126766 (CH5126766)]	5.36	5.27

Same assay, conditions: 10 µM

Structure (SMILES)	% Inh. (% Inhibition of SARS-CoV-2) [%]
O=[N+]([O-])c1ccccc1S(=O)(=O)NCC1CCC(CNC[C@H]2CCc3ccccc3C2)CC1 (stereo partly shown) [NTNCB]	92.7
Nc1nc(OCC2CCCCC2)c2[nH]cnc2n1 [NU-2058]	51.9
COc1cccc(-c2cc(F)ccc2[C@H]2Cc3nc(N)nc(C)c3C(=O)N2)n1 [NVP-HSP990]	100.4
CNC(=O)c1ccccc1Nc1nc(Nc2ccc(N3CCOCC3)cc2OC)ncc1Cl [NVP-TAE226]	73.2
CN1CC[C@@H](c2c(O)cc(O)c3c(=O)cc(-c4ccccc4Cl)oc23)[C@@H]1CO.Cl [P276-00]	94.4
COC(=O)C1=C(C)NC(C)=C(C(=O)OCCSc2ccccc2)C1C (stereo not shown) [PCA-4248]	55.3
C=CC(=O)Nc1ccc2ncnc(Nc3cccc(Br)c3)c2c1 [PD168393]	51.5
CCOC(=O)c1c(C)[nH]c2ccc3c(c12)CN1CCc2cc(OC)ccc2C1O3 (stereo not shown) [PD-102807]	121.8
CNc1cc2c(Nc3cccc(Br)c3)ncnc2cn1 [PD-158780]	98.3
CCN(CC)CCCCNc1ncc2cc(-c3c(Cl)cccc3Cl)c(NC(=O)NC(C)(C)C)nc2n1 [PD-161570]	108.1
Cc1cc(I)ccc1Nc1c(C(=O)NOCC2CC2)cc(F)c(F)c1F [PD-198306]	51.6
CCCCCCCCCCCCCCCc1cccc(OCC(=O)NCCO)c1 [PDP-EA]	65.3
O=C(Nc1ccccc1)N1CCC(Cc2cnc3ccccc3c2)CC1 [PF-750]	85.2
N#Cc1ccc(N2N=C3c4ccc(C(=O)O)cc4CC[C@@H]3[C@@H]2C2CCCC2)cc1Cl [PF-03882845]	58.6
CC1(C)CC(=O)c2c(C(F)(F)F)nn(-c3ccc(C(N)=O)c(N[C@H]4CC[C@H](OC(=O)CN)CC4)c3)c2C1 [PF-04929113 (SNX-5422)]	91.3
O=C(/C=C/c1ccc2ccccc2n1)c1ccncc1 [PFK-015]	101.3
Cc1ccc([N+](=O)[O-])cc1S(=O)(=O)N(C)/N=C/c1cnc2ccc(Br)cn12 [PIK-75]	87.6
FC(F)(F)c1ccc(CNc2ccc(Cc3c[nH]c4ncccc34)cn2)cc1 [PLX-647]	95.7
Cc1ccc(-c2nn(C(C)(C)C)c3ncnc(N)c23)cc1 [PP-1]	121.9
CCCCC1CCC(c2nc(-c3ccncc3)no2)CC1 (stereo not shown) [PSN-375963]	83.9
COc1cc(Br)c(Nc2nc(-c3c(C)nc4ncccn34)cs2)c(Br)c1 [PTC-209]	103.6
COc1ccc2nc3cc(Cl)ccc3c(Nc3cc(CN4CCCC4)c(O)c(CN4CCCC4)c3)c2n1.O=P(O)(O)O.O=P(O)(O)O.O=P(O)(O)O.O=P(O)(O)O [PYRONARIDINE TETRAPHOSPHATE]	80.6
CCc1nc2ccc(Cl)cn2c1C(=O)NCc1ccc(N2CCC(c3ccc(OC(F)(F)F)cc3)CC2)cc1 [Q-203]	96.9
Nc1ccc2ncnc(NCCc3ccc(Oc4ccccc4)cc3)c2c1 [QNZ (EVP4593)]	95.8

Structure (SMILES)	% Inh. (% Inhibition of SARS-CoV-2) [%]
Cn1c(Nc2ccc(C(F)(F)F)cc2)nc2cc(Oc3ccnc(-c4ncc(C(F)(F)F)[nH]4)c3)ccc21 [RAF265 (CHIR-265)]	93.2
CCCCCC(O)c1cccc(OCc2ccc3ccccc3n2)c1 [REV-5901/L-655,238]	113.5
CCOc1cc(C(C)(C)C)ccc1C1=N[C@@](C)(c2ccc(Cl)cc2)[C@@](C)(c2ccc(Cl)cc2)N1C(=O)N1CCN(CCCS(C)(=O)=O)CC1 [RG7112 (RO5045337)]	88.5
COCCN1CCN(Cc2ccc(-c3n[nH]c4c3C(=O)c3c(NC(=O)NN5CCOCC5)cccc3-4)cc2)CC1 [RGB-286638 (free base)]	70.2
O=C(NCCCCCCNC(=O)ON=C1CCCCC1)ON=C1CCCCC1 [RHC-80267]	63.9
CNS(=O)(=O)Nc1nccc(Cc2c(C)c3ccc(Oc4ncccn4)cc3oc2=O)c1F [RO5126766 (CH5126766)]	102.6
CC(C)(Cc1c[nH]c2ccc(Cl)cc12)NCCOc1ccccc1OCC1CC1 [RS-17053]	103.3
O=C1Nc2ccccc2C2(CCN(CCc3ccc(C(F)(F)F)cc3)CC2)O1 [RS-102895]	82.1
CCOc1cc(C(=O)Nc2ccc(Cl)c(-c3nc4ccccc4[nH]3)c2)cc(OCC)c1OCC [SANT-2]	84.1
CN1C/C=C/CCOc2cccc(c2)-c2ccnc(n2)Nc2cccc(c2)C1 [SB1317]	56.5
O=C(Nc1ccccc1Br)N[C@@H]1CCN(c2ccc(C(F)(F)F)cn2)C1 [SB705498]	64.6
COc1ccc(NC(=O)c2ccc(-c3ccc(-c4noc(C)n4)cc3C)cc2)cc1OCCN(C)C [SB-216641]	57.6
COc1cc(Br)c(S(=O)(=O)Nc2ccc(Cl)c(O[C@@H]3CCN(C)C3)c2)cc1OC [SB-657510]	101.1
Cc1ccc(C(=O)N(CCCN)[C@@H](c2oc3cc(Cl)ccc3c(=O)c2Cc2ccccc2)C(C)C)cc1 [SB-743921]	78.9
O=C(NNc1nc2cc(F)ccc2n2cccc12)c1cnccn1 [SC144]	108.7
O=S(=O)(NCCCCCCc1ccccc1)c1cccc2c(Cl)cccc12 [SC-9]	83.4
NC(CO)(CO)CO.Nc1nccc(Oc2ccc(NC(=O)c3cn(COP(=O)(O)O)cc(-c4ccc(F)cc4)c3=O)cc2F)c1Cl [SCR-1481B1]	89.3
Fc1ccc(Cl)cc1-c1nc(Nc2ccncc2)c2nccnc2n1 [SD-208]	55.1
COc1cc2c(cc1OC)CN(C(=O)/C=C/c1c(-c3ccccc3)n(C)c3ncccc13)CC2 [SIS3]	99.3
O=C1NC(=O)/C(=C/c2cccc(C(F)(F)F)c2)S1 [SMI-4a]	89.9
CCc1c2c(nc3ccc(O)cc13)-c1cc3c(c(=O)n1C2)COC(=O)[C@]3(O)CC [SN-38]	79.2
Cc1ccc(NC(=O)C(C)C)cc1C1CCN(Cc2ccc(Oc3ccc(F)c(F)c3)cc2)CC1 [SNAP-94847]	91.4
COc1ccc2[nH]c3c(-c4cccc5ccccc45)nccc3c2c1 [SP-141]	68.6
COc1ccc(CCN(C)CCCOc2ccc(S(=O)(=O)c3c(C(C)C)c4ccccc4n3C)cc2)cc1OC.O=C(O)C(=O)O [SR-33805 oxalate]	67.7

Structure (SMILES)	% Inh. (% Inhibition of SARS-CoV-2) [%]
CCc1ccccc1OC[C@@H](O)CN[C@H]1CCCc2ccccc21 [SR-59230A]	57.3
CN(C)C(=O)C(=O)c1cn(C)c2cc(Cl)c(C(=O)N3CCC(Cc4ccc(F)cc4)CC3)cc12 [SX-011]	94.1
C[C@]12CC[C@H]3[C@@H](CC[C@]4(O)C[C@@H](O)CC[C@]34C=O)[C@@]1(O)CC[C@@H]2C1=CC(=O)OC1 [Strophantidin]	67.1
CN(C)CCNc1nc2cc(O)ccc2c2c1C(=O)c1ccccc1-2.Cl.Cl [TAS-103 (dihydrochloride)]	92.6
OC12C3C4CC5C6C4C1C6C(C53)N2CCc1cccc(F)c1 (stereo not shown) [TC1]	53.2
CC1CCN(C(c2ccc(F)cc2)c2ccc(C(C)C(=O)O)cc2-c2ccc(C(F)(F)F)cc2)CC1 (stereo not shown) [TC-E-5006]	94.1
CC(C)(C)Nc1nc(Nc2ccc(C(N)=O)cc2)cc(N)c1C#N [TC-Mps1-12]	65.3
COc1ncc2cc(C(=O)Nc3cc(C(=O)NCc4cccc(Cl)c4)ccc3Cl)c(=O)[nH]c2n1 [TC-S-7004]	77.3
N#Cc1cnc2cnc(NCc3cccnc3)cc2c1Nc1ccc(F)c(Cl)c1 [TC-S-7006]	100.7
COc1cc2c(cc1OC)CN(C(=O)[C@@H](NCc1ccncc1)C(C)(C)C)CC2 [TCS-OX2-29]	52.7
CCN1/C(=C/C(C)=O)Sc2ccc(OC)cc21 [TG003]	55.4
CC(C)(O)c1ccn2c(-c3ccc(F)c(-c4ccc(F)cc4C#N)c3)cnc2c1F [TP-003]	100.8
NC(=O)Nc1sc(-c2ccc(F)cc2)cc1C(N)=O [TPCA-1]	103.5
O=C(CNC(=O)c1cccc(C(F)(F)F)c1)N[C@@H]1CCN(Cc2ccc(Cl)cc2)C1 [Teijin-compound-1]	85.7
CCC(=O)N1CCN(c2ccc(-n3c(=O)ccc4cnc5ccc(-c6cnc7ccccc7c6)cc5c43)cc2C(F)(F)F)CC1 [Torin 1]	75.3
c1ccc(C(NCc2cccnc2)(c2ccccc2)c2ccccc2)cc1 [UCL-2077]	70.7
c1cncc(CN2CCC(n3ncc4c(N5CCOCC5)nc(-c5ccc6[nH]ccc6c5)nc43)CC2)c1 [WAY-600]	99.1
CC(C)(C)c1ccc(-c2nc3c(N4CCN(Cc5ccc6nccnc6c5)CC4)cccc3[nH]2)cc1 [WAY-207024]	77.1
COC(=O)Nc1ccc(-c2nc(N3CCOCC3)c3cnn(C4CCN(C(=O)OC)CC4)c3n2)cc1 [WYE-354]	89.9
COC(=O)Nc1ccc(-c2nc(N3CCOCC3)c3cnn(C4CCN(Cc5cccnc5)CC4)c3n2)cc1 [WYE-687]	105.8
CNC(=O)Nc1ccc(-c2nc(N3CC4CCC(C3)O4)c3cnn(C4CCC5(CC4)OCCO5)c3n2)cc1 [WYE-125132]	99.7
Cc1cc(-c2ccc(CC(=O)Nc3ccc(-c4cccnc4)cc3)cc2)ccn1 [Wnt-C59 (C59)]	82.3
Nc1cccc(CNC(=O)c2ccc(Oc3ccc(OCc4cccc(F)c4)cc3)nc2)c1 [YM-244769]	60.4
COc1cc2ncnc(Nc3ccc(Cl)cc3F)c2cc1OC [ZM-306416]	77.9
